Measurements taken from patent US20260130395A1, “Water Dispersible Botanical Compositions” (Aquila Black Limited, priority 2021, published 2026).

Assay: Stability of cannabinoid compounds and Vitamin E components in Beverage 2 (AB Red) by LCMSMS
Type: physicochemical
Description: The stability of the plant-derived cannabinoid compounds and Vitamin E components of the beverage stored 8° C. and at room temperature (21-25° C.) were monitored, over a period of 570 days via Liquid Chromatography-tandem Mass Spectrometry [LCMSMS, AGilent 6590, C18, 3×50 mm, 2.7 m (Agilent InfinityLab Poroshell 120 EC-C18), Electrospray Ionization detector]. The LCMSMS was calibrated for 0-50 ng/ml cannabinoids with the same resin material used in the preparation of the concentrates. At each time period, 100 ml of beverage was diluted with 10 ml of methanol and injected into the LCMSMS for analysis.

## CCCCCc1cc(O)c(C/C=C(\C)CCC=C(C)C)c(O)c1 [CBG, cannabigerol]
Stored at 8° C., 0 days
  Stability of Plant-Derived Cannabinoid Compounds in AB Red: 4.75 µg/mL
Stored at 8° C., 1 days
  Stability of Plant-Derived Cannabinoid Compounds in AB Red: 4.62 µg/mL
Stored at 8° C., 2 days
  Stability of Plant-Derived Cannabinoid Compounds in AB Red: 4.79 µg/mL
Stored at 8° C., 3 days
  Stability of Plant-Derived Cannabinoid Compounds in AB Red: 4.70 µg/mL
Stored at 8° C., 5 days
  Stability of Plant-Derived Cannabinoid Compounds in AB Red: 4.75 µg/mL
Stored at 8° C., 8 days
  Stability of Plant-Derived Cannabinoid Compounds in AB Red: 4.76 µg/mL
Stored at 8° C., 9 days
  Stability of Plant-Derived Cannabinoid Compounds in AB Red: 4.72 µg/mL
Stored at 8° C., 10 days
  Stability of Plant-Derived Cannabinoid Compounds in AB Red: 4.68 µg/mL
Stored at 8° C., 11 days
  Stability of Plant-Derived Cannabinoid Compounds in AB Red: 4.77 µg/mL
Stored at 8° C., 12 days
  Stability of Plant-Derived Cannabinoid Compounds in AB Red: 4.64 µg/mL
Stored at 8° C., 15 days
  Stability of Plant-Derived Cannabinoid Compounds in AB Red: 4.68 µg/mL
Stored at 8° C., 16 days
  Stability of Plant-Derived Cannabinoid Compounds in AB Red: 4.65 µg/mL
Stored at 8° C., 17 days
  Stability of Plant-Derived Cannabinoid Compounds in AB Red: 4.77 µg/mL
Stored at 8° C., 18 days
  Stability of Plant-Derived Cannabinoid Compounds in AB Red: 4.67 µg/mL
Stored at 8° C., 19 days
  Stability of Plant-Derived Cannabinoid Compounds in AB Red: 4.71 µg/mL
Stored at 8° C., 22 days
  Stability of Plant-Derived Cannabinoid Compounds in AB Red: 4.70 µg/mL
Stored at 8° C., 23 days
  Stability of Plant-Derived Cannabinoid Compounds in AB Red: 4.66 µg/mL
Stored at 8° C., 24 days
  Stability of Plant-Derived Cannabinoid Compounds in AB Red: 4.65 µg/mL
Stored at 8° C., 25 days
  Stability of Plant-Derived Cannabinoid Compounds in AB Red: 4.73 µg/mL
Stored at 8° C., 26 days
  Stability of Plant-Derived Cannabinoid Compounds in AB Red: 4.68 µg/mL
Stored at 8° C., 29 days
  Stability of Plant-Derived Cannabinoid Compounds in AB Red: 4.80 µg/mL
Stored at 8° C., 30 days
  Stability of Plant-Derived Cannabinoid Compounds in AB Red: 4.72 µg/mL
Stored at 8° C., 60 days
  Stability of Plant-Derived Cannabinoid Compounds in AB Red: 4.70 µg/mL
Stored at 8° C., 90 days
  Stability of Plant-Derived Cannabinoid Compounds in AB Red: 4.73 µg/mL
Stored at 8° C., 120 days
  Stability of Plant-Derived Cannabinoid Compounds in AB Red: 4.68 µg/mL
Stored at 8° C., 150 days
  Stability of Plant-Derived Cannabinoid Compounds in AB Red: 4.67 µg/mL
Stored at 8° C., 180 days
  Stability of Plant-Derived Cannabinoid Compounds in AB Red: 4.65 µg/mL
Stored at 8° C., 210 days
  Stability of Plant-Derived Cannabinoid Compounds in AB Red: 4.60 µg/mL
Stored at 8° C., 240 days
  Stability of Plant-Derived Cannabinoid Compounds in AB Red: 4.68 µg/mL
Stored at 8° C., 270 days
  Stability of Plant-Derived Cannabinoid Compounds in AB Red: 4.66 µg/mL
Stored at 8° C., 300 days
  Stability of Plant-Derived Cannabinoid Compounds in AB Red: 4.70 µg/mL
Stored at 8° C., 330 days
  Stability of Plant-Derived Cannabinoid Compounds in AB Red: 4.60 µg/mL
Stored at 8° C., 360 days
  Stability of Plant-Derived Cannabinoid Compounds in AB Red: 4.63 µg/mL
Stored at 8° C., 390 days
  Stability of Plant-Derived Cannabinoid Compounds in AB Red: 4.55 µg/mL
Stored at 8° C., 420 days
  Stability of Plant-Derived Cannabinoid Compounds in AB Red: 4.58 µg/mL
Stored at 8° C., 450 days
  Stability of Plant-Derived Cannabinoid Compounds in AB Red: 4.54 µg/mL
Stored at 8° C., 480 days
  Stability of Plant-Derived Cannabinoid Compounds in AB Red: 4.51 µg/mL
Stored at 8° C., 510 days
  Stability of Plant-Derived Cannabinoid Compounds in AB Red: 4.40 µg/mL
Stored at 8° C., 540 days
  Stability of Plant-Derived Cannabinoid Compounds in AB Red: 4.42 µg/mL
Stored at 8° C., 570 days
  Stability of Plant-Derived Cannabinoid Compounds in AB Red: 4.37 µg/mL
Stored at 21-25° C., 0 days
  Stability of Plant-Derived Cannabinoid Compounds in AB Red: 4.75 µg/mL
Stored at 21-25° C., 1 days
  Stability of Plant-Derived Cannabinoid Compounds in AB Red: 4.57 µg/mL
Stored at 21-25° C., 2 days
  Stability of Plant-Derived Cannabinoid Compounds in AB Red: 4.61 µg/mL
Stored at 21-25° C., 3 days
  Stability of Plant-Derived Cannabinoid Compounds in AB Red: 4.71 µg/mL
Stored at 21-25° C., 5 days
  Stability of Plant-Derived Cannabinoid Compounds in AB Red: 4.66 µg/mL
Stored at 21-25° C., 8 days
  Stability of Plant-Derived Cannabinoid Compounds in AB Red: 4.66 µg/mL
Stored at 21-25° C., 9 days
  Stability of Plant-Derived Cannabinoid Compounds in AB Red: 4.74 µg/mL
Stored at 21-25° C., 10 days
  Stability of Plant-Derived Cannabinoid Compounds in AB Red: 4.59 µg/mL
Stored at 21-25° C., 11 days
  Stability of Plant-Derived Cannabinoid Compounds in AB Red: 4.72 µg/mL
Stored at 21-25° C., 12 days
  Stability of Plant-Derived Cannabinoid Compounds in AB Red: 4.62 µg/mL
Stored at 21-25° C., 15 days
  Stability of Plant-Derived Cannabinoid Compounds in AB Red: 4.80 µg/mL
Stored at 21-25° C., 16 days
  Stability of Plant-Derived Cannabinoid Compounds in AB Red: 4.75 µg/mL
Stored at 21-25° C., 17 days
  Stability of Plant-Derived Cannabinoid Compounds in AB Red: 4.63 µg/mL
Stored at 21-25° C., 18 days
  Stability of Plant-Derived Cannabinoid Compounds in AB Red: 4.70 µg/mL
Stored at 21-25° C., 19 days
  Stability of Plant-Derived Cannabinoid Compounds in AB Red: 4.66 µg/mL
Stored at 21-25° C., 22 days
  Stability of Plant-Derived Cannabinoid Compounds in AB Red: 4.71 µg/mL
Stored at 21-25° C., 23 days
  Stability of Plant-Derived Cannabinoid Compounds in AB Red: 4.67 µg/mL
Stored at 21-25° C., 24 days
  Stability of Plant-Derived Cannabinoid Compounds in AB Red: 4.78 µg/mL
Stored at 21-25° C., 25 days
  Stability of Plant-Derived Cannabinoid Compounds in AB Red: 4.56 µg/mL
Stored at 21-25° C., 26 days
  Stability of Plant-Derived Cannabinoid Compounds in AB Red: 4.77 µg/mL
Stored at 21-25° C., 29 days
  Stability of Plant-Derived Cannabinoid Compounds in AB Red: 4.78 µg/mL
Stored at 21-25° C., 30 days
  Stability of Plant-Derived Cannabinoid Compounds in AB Red: 4.73 µg/mL
Stored at 21-25° C., 60 days
  Stability of Plant-Derived Cannabinoid Compounds in AB Red: 4.61 µg/mL
Stored at 21-25° C., 90 days
  Stability of Plant-Derived Cannabinoid Compounds in AB Red: 4.55 µg/mL
Stored at 21-25° C., 120 days
  Stability of Plant-Derived Cannabinoid Compounds in AB Red: 4.61 µg/mL
Stored at 21-25° C., 150 days
  Stability of Plant-Derived Cannabinoid Compounds in AB Red: 4.65 µg/mL
Stored at 21-25° C., 180 days
  Stability of Plant-Derived Cannabinoid Compounds in AB Red: 4.53 µg/mL
Stored at 21-25° C., 210 days
  Stability of Plant-Derived Cannabinoid Compounds in AB Red: 4.63 µg/mL
Stored at 21-25° C., 240 days
  Stability of Plant-Derived Cannabinoid Compounds in AB Red: 4.56 µg/mL
Stored at 21-25° C., 270 days
  Stability of Plant-Derived Cannabinoid Compounds in AB Red: 4.68 µg/mL
Stored at 21-25° C., 300 days
  Stability of Plant-Derived Cannabinoid Compounds in AB Red: 4.47 µg/mL
Stored at 21-25° C., 330 days
  Stability of Plant-Derived Cannabinoid Compounds in AB Red: 4.57 µg/mL
Stored at 21-25° C., 360 days
  Stability of Plant-Derived Cannabinoid Compounds in AB Red: 4.47 µg/mL
Stored at 21-25° C., 390 days
  Stability of Plant-Derived Cannabinoid Compounds in AB Red: 4.57 µg/mL
Stored at 21-25° C., 420 days
  Stability of Plant-Derived Cannabinoid Compounds in AB Red: 4.51 µg/mL
Stored at 21-25° C., 450 days
  Stability of Plant-Derived Cannabinoid Compounds in AB Red: 4.63 µg/mL
Stored at 21-25° C., 480 days
  Stability of Plant-Derived Cannabinoid Compounds in AB Red: 4.44 µg/mL
Stored at 21-25° C., 510 days
  Stability of Plant-Derived Cannabinoid Compounds in AB Red: 4.37 µg/mL
Stored at 21-25° C., 540 days
  Stability of Plant-Derived Cannabinoid Compounds in AB Red: 4.49 µg/mL
Stored at 21-25° C., 570 days
  Stability of Plant-Derived Cannabinoid Compounds in AB Red: 4.36 µg/mL
